Measurements published in PubChem BioAssay AID1963836 (Molecular Pharmacology Branch, DTP, NCI, 2024).

Test system: 857933-349-R-J2-PDC complex spheroid viability
Assay: Anticancer human tumor 857933-349-R-J2-PDC patient-derived colon adenocarcinoma cell line growth inhibition [POLQ]
Conditions: for IC50: curve of first compound; for viability, T/C: stronger effect = lower value
Procedure, shortened: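 Complex spheroid viability model combining PDC tumour cells with endothelial (HUVEC) and MSC stromal cells. Novobiocin, ART-558 or RP6685 were tested singly and in combination with standard and investigational anticancer drugs. Each was titrated in half-log steps from near clinical Cmax, or from 10 microM where Cmax was unknown.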

[1] = second compound 0.0316 µM, first compound 0.0316 µM
[2] = second compound 0.0316 µM, first compound 0.1 µM
[3] = second compound 0.0316 µM, first compound 0.316 µM
[4] = second compound 0.0316 µM, first compound 1 µM
[5] = second compound 0.0316 µM, first compound 3.16 µM
[6] = second compound 0.0316 µM, first compound 10 µM
[7] = second compound 0.1 µM, first compound 0.0316 µM
[8] = second compound 0.1 µM, first compound 0.1 µM
[9] = second compound 0.1 µM, first compound 0.316 µM
[10] = second compound 0.1 µM, first compound 1 µM
[11] = second compound 0.1 µM, first compound 3.16 µM
[12] = second compound 0.1 µM, first compound 10 µM
[13] = second compound 0.316 µM, first compound 0.0316 µM
[14] = second compound 0.316 µM, first compound 0.1 µM
[15] = second compound 0.316 µM, first compound 0.316 µM
[16] = second compound 0.316 µM, first compound 1 µM
[17] = second compound 0.316 µM, first compound 3.16 µM
[18] = second compound 0.316 µM, first compound 10 µM
[19] = second compound 1 µM, first compound 0.0316 µM
[20] = second compound 1 µM, first compound 0.1 µM
[21] = second compound 1 µM, first compound 0.316 µM
[22] = second compound 1 µM, first compound 1 µM
[23] = second compound 1 µM, first compound 3.16 µM
[24] = second compound 1 µM, first compound 10 µM
[25] = second compound 3.16 µM, first compound 0.0316 µM
[26] = second compound 3.16 µM, first compound 0.1 µM
[27] = second compound 3.16 µM, first compound 0.316 µM
[28] = second compound 3.16 µM, first compound 1 µM
[29] = second compound 3.16 µM, first compound 3.16 µM
[30] = second compound 3.16 µM, first compound 10 µM
[31] = second compound 10 µM, first compound 0.0316 µM
[32] = second compound 10 µM, first compound 0.1 µM
[33] = second compound 10 µM, first compound 0.316 µM
[34] = second compound 10 µM, first compound 1 µM
[35] = second compound 10 µM, first compound 3.16 µM
[36] = second compound 10 µM, first compound 10 µM
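Further: spheroids exposed to compounds for seven days before readout.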

## CCc1cc2c(N3CCc4c(cc(Cn5ccnc5)cc4-c4cn(C)nc4C(F)(F)F)C3=O)cc(C)nc2c(OC)n1 + Nc1ccc(C#CCN(C(=O)Cc2ncc(C(F)(F)F)cc2C(F)(F)F)c2ccc(F)cc2)nn1
Second compound 0.0316 µM
  IC50: > 10 µM
Second compound 0.1 µM
  IC50: > 10 µM
Second compound 0.316 µM
  IC50: > 10 µM
Second compound 1 µM
  IC50: > 10 µM
Second compound 3.16 µM
  IC50: > 10 µM
Second compound 10 µM
  IC50: > 10 µM
[1]
  viability, T/C: 94.9%
[2]
  viability, T/C: 92.8%
[3]
  viability, T/C: 80.3%
[4]
  viability, T/C: 79.8%
[5]
  viability, T/C: 67.4%
[6]
  viability, T/C: 62.8%
[7]
  viability, T/C: 92%
[8]
  viability, T/C: 101%
[9]
  viability, T/C: 76.2%
[10]
  viability, T/C: 73.5%
[11]
  viability, T/C: 77.7%
[12]
  viability, T/C: 55.1%
[13]
  viability, T/C: 89%
[14]
  viability, T/C: 86.8%
[15]
  viability, T/C: 86.5%
[16]
  viability, T/C: 81%
[17]
  viability, T/C: 65.7%
[18]
  viability, T/C: 57.1%
[19]
  viability, T/C: 95.9%
[20]
  viability, T/C: 96.9%
[21]
  viability, T/C: 86.8%
[22]
  viability, T/C: 78.8%
[23]
  viability, T/C: 75.3%
[24]
  viability, T/C: 51.4%
[25]
  viability, T/C: 87.8%
[26]
  viability, T/C: 87%
[27]
  viability, T/C: 97.7%
[28]
  viability, T/C: 69.3%
[29]
  viability, T/C: 64.3%
[30]
  viability, T/C: 59.5%
[31]
  viability, T/C: 90.2%
[32]
  viability, T/C: 78.5%
[33]
  viability, T/C: 75%
[34]
  viability, T/C: 65.5%
[35]
  viability, T/C: 53.5%
[36]
  viability, T/C: 53.4%

## COc1cc2cc(C(=O)CCC(=O)O)sc2cc1OC + Nc1ccc(C#CCN(C(=O)Cc2ncc(C(F)(F)F)cc2C(F)(F)F)c2ccc(F)cc2)nn1
Second compound 0.0316 µM
  IC50: > 10 µM
Second compound 0.1 µM
  IC50: > 10 µM
Second compound 0.316 µM
  IC50: > 10 µM
Second compound 1 µM
  IC50: > 10 µM
Second compound 3.16 µM
  IC50: > 10 µM
Second compound 10 µM
  IC50: > 10 µM
[1]
  viability, T/C: 103%
[2]
  viability, T/C: 110%
[3]
  viability, T/C: 108%
[4]
  viability, T/C: 111%
[5]
  viability, T/C: 100%
[6]
  viability, T/C: 104%
[7]
  viability, T/C: 100%
[8]
  viability, T/C: 106%
[9]
  viability, T/C: 101%
[10]
  viability, T/C: 110%
[11]
  viability, T/C: 108%
[12]
  viability, T/C: 97.5%
[13]
  viability, T/C: 96.5%
[14]
  viability, T/C: 97.3%
[15]
  viability, T/C: 98.2%
[16]
  viability, T/C: 92.4%
[17]
  viability, T/C: 106%
[18]
  viability, T/C: 96%
[19]
  viability, T/C: 103%
[20]
  viability, T/C: 93.3%
[21]
  viability, T/C: 97.5%
[22]
  viability, T/C: 109%
[23]
  viability, T/C: 110%
[24]
  viability, T/C: 89.1%
[25]
  viability, T/C: 102%
[26]
  viability, T/C: 98.7%
[27]
  viability, T/C: 90.7%
[28]
  viability, T/C: 89.7%
[29]
  viability, T/C: 104%
[30]
  viability, T/C: 103%
[31]
  viability, T/C: 93.7%
[32]
  viability, T/C: 78.3%
[33]
  viability, T/C: 98.9%
[34]
  viability, T/C: 97.6%
[35]
  viability, T/C: 108%
[36]
  viability, T/C: 78.4%

## O=C(Nc1ccc(O)c(NS(=O)(=O)c2ccc(F)cc2)c1)c1ccc(-c2ccccc2)cc1 + Nc1ccc(C#CCN(C(=O)Cc2ncc(C(F)(F)F)cc2C(F)(F)F)c2ccc(F)cc2)nn1
Second compound 0.0316 µM
  IC50: > 10 µM
Second compound 0.1 µM
  IC50: > 10 µM
Second compound 0.316 µM
  IC50: > 10 µM
Second compound 1 µM
  IC50: > 10 µM
Second compound 3.16 µM
  IC50: > 10 µM
Second compound 10 µM
  IC50: > 10 µM
[1]
  viability, T/C: 95.1%
[2]
  viability, T/C: 108%
[3]
  viability, T/C: 103%
[4]
  viability, T/C: 111%
[5]
  viability, T/C: 110%
[6]
  viability, T/C: 92%
[7]
  viability, T/C: 90.1%
[8]
  viability, T/C: 96.6%
[9]
  viability, T/C: 97%
[10]
  viability, T/C: 103%
[11]
  viability, T/C: 119%
[12]
  viability, T/C: 103%
[13]
  viability, T/C: 84.2%
[14]
  viability, T/C: 98.8%
[15]
  viability, T/C: 91.2%
[16]
  viability, T/C: 102%
[17]
  viability, T/C: 110%
[18]
  viability, T/C: 98.8%
[19]
  viability, T/C: 90.7%
[20]
  viability, T/C: 106%
[21]
  viability, T/C: 101%
[22]
  viability, T/C: 97.9%
[23]
  viability, T/C: 89.7%
[24]
  viability, T/C: 94.2%
[25]
  viability, T/C: 97%
[26]
  viability, T/C: 96.2%
[27]
  viability, T/C: 104%
[28]
  viability, T/C: 85.1%
[29]
  viability, T/C: 104%
[30]
  viability, T/C: 99.7%
[31]
  viability, T/C: 103%
[32]
  viability, T/C: 105%
[33]
  viability, T/C: 98.6%
[34]
  viability, T/C: 107%
[35]
  viability, T/C: 90.8%
[36]
  viability, T/C: 113%
